Assay results reported in patent publication US20170273901A1, “SUNITINIB FORMULATIONS AND METHODS FOR USE THEREOF IN TREATMENT OF OCULAR DISORDERS” (THE JOHNS HOPKINS UNIVERSITY, priority 2014, published 2017).

Tests used:
[1] = Drug ocular retention in vivo after SC injection (autofluorescence imaging of eyeballs); set-up: species or system Sprague Dawley rats; details: rat eye
Protocol: At post injection (PI) day 0, 1, 3, 7, 14 and 28, the whole eyeballs (n=4) were harvested after the animals were sacrificed. […] The fluorescent images were analyzed using the Living Image 3.0 software (Caliper Lifesciences, Inc.), and the retention of sunitinib was quantified by comparing to the fluorescence counts of the eye immediately undertaken SC injection. Rat eyes without SC injection were used as the baseline.

corneal NV = assay: Treatment of suture-induced corneal NV, quantitative analysis of NV area and length; assay type: in vivo, Sprague Dawley rats; details: single SC injection 30 μL, 5 mg sunb-malate/mL; POD 5, 7, 14
Description: Corneal NV was induced by intrastromal suturing. […] The distance between the stitch and the limbus was approximately 2 mm while there was a distance of 1 mm between the two stitches. […] Erythromycin antibiotic ointment was applied to prevent potential infection and corneal dry-up. The rats were followed for 2 weeks. The corneas of all rats were examined by slit-lamp biomicroscope (SL120; Carl Zeiss AG, Oberkochen, Germany) and corneal photographs were taken with a digital camera. The area and length of vascularized cornea were quantified with Photoshop CS3.0. The arc was drawn along the limbus, the vascularized area pixel measured and the corneal NV area was calculated using the following equation: The vascularized area was evenly divided into six sections. The distance between vessel tips and the limbus at the five intersection points of the arc was measured. The average of the five measured lengths was regarded as the corneal NV length.

[2] = Solubility of sunb-malate in PBS; assay type: physicochemical

time to clearance after SC injection ([1]; 30 μL of 5 mg/mL): ≤ 1 days | time to almost no drug retention in the eye ([1]; SC injection): ≤ 24 h | concentration dissolved in PBS [2]: at least 25 mg/mL
SMILES: CCN(CC)CCNC(=O)c1c(C)[nH]c(/C=C2\C(=O)Nc3ccc(F)cc32)c1C.O=C(O)C[C@H](O)C(=O)O [Sunb-malate free drug, Sunitinib malate]
inhibition of corneal NV (length and area) (corneal NV): negligible effect
